Like-named read-outs stand apart in the source and are kept apart here.
How the values were obtained:
SCLC strain SHP-77 = test: MTT assay for cell survival, SCLC SHP-77 in vitro; assay type: cell-based, human; conditions: ED50 for killing of SCLC strain SHP-77 in vitro, 4 days, 0 = no detectable activity
A549 NSCLC cells = test: Inhibition of A-549 tumor growth in vivo in nude mice; parameters: species or system athymic nude mice; key: an IC50 value of “0” represents no detectable anti-cancer activity for a drug in a given cell line; “Stim.” indicates the observation of a stimulatory activity on the growth of the cancer cell line; conditions: percent inhibition of tumor growth in nude mice; i.p. 5 mg/kg/every second day or 10 mg/kg/every fourth day
Protocol: Compounds having high in vitro cytotoxic activity were tested against implanted tumors in vivo. Athymic nude mice were implanted subcutaneously with suspensions (2 million SHP-77 SCLC cells, 1 million A549 NSCLC cells or 1.5 million PC3 PC cells) in Matrigel suspension. On the eighth day after tumor implantation groups of 5 mice bearing implants were injected intraperitoneally with the compounds being tested at 5 mg/kg/every second day or at 10 mg/kg/every fourth day; control animals were injected with an equal volume of isotonic saline. Less soluble compounds were initially dissolved in dimethyl sulfoxide (DMSO) and diluted with medium. In those cases the control injections contained the same concentration of DMSO. Tumor size was measured with a caliper three times per week. Tumor volume was calculated by the formula: Volume(cc)=3.14×(length)×(width)^2/6 At autopsy tumors were removed and weighed. Tumor inhibition was calculated on both weight and measurement basis. In each Table, an IC50 value of “0” represents no detectable anti-cancer activity for a drug in a given cell line and “Stim.” indicates the observation of a stimulatory activity on the growth of the cancer cell line.

PC3 PC cells = test: Inhibition of PC3 tumor growth in vivo in nude mice; parameters: species or system athymic nude mice; key to PC3 In vivo % inhib.: an IC50 value of “0” represents no detectable anti-cancer activity for a drug in a given cell line; “Stim.” indicates the observation of a stimulatory activity on the growth of the cancer cell line; conditions: percent inhibition of tumor growth in nude mice; prostate cancer; i.p. 5 mg/kg/every second day or 10 mg/kg/every fourth day
In short: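 Groups of 5 nude mice dosed i.p. at 10 mg/kg every fourth day or 5 mg/kg every second day, beginning 8 days after s.c. implantation of PC3 (1.5 million), A549 (1 million) or SHP-77 (2 million) cells in Matrigel; saline or DMSO-matched controls. Tumor weight at necropsy and caliper-derived volume both used to calculate inhibition.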

NSCLC strain A-549 = test: MTT assay for cell survival, NSCLC A-549 in vitro; assay type: cell-based, human; conditions: ED50 for killing of NSCLC strain A-549 in vitro, 4 days

Structure (SMILES)	IC50 (SCLC strain SHP-77; read-out: SHP-77 In vitro IC50) [µM]	A-549 In vivo % inhib. (A549 NSCLC cells)	PC3 In vivo % inhib. (PC3 PC cells)	IC50 (SCLC strain SHP-77; read-out: SCLC SHP-77 IC50) [µM]	IC50 (NSCLC strain A-549) [µM]
CC1(C)CC(NC(=O)C(Cc2ccc(OCc3c(Cl)cccc3Cl)cc2)NC(=O)C(c2ccccc2)C2CCCCC2)CC(C)(C)N1 (single isomer, unassigned) [M-1124#1, Chpa-OC2Y-Atmp]	1.7	50%	Stim		
CC1(C)CC(NC(=O)C(Cc2ccc(OCc3c(Cl)cccc3Cl)cc2)NC(=O)C(c2ccccc2)C2CCCCC2)CC(C)(C)N1 (single isomer, unassigned) [M-1124#2, Chpa-OC2Y-Atmp]	3.5	4.5%			
CC1(C)CC(NC(=O)C(Cc2ccc(OCc3c(Cl)cccc3Cl)cc2)NC(=O)C(C)(c2ccccc2)c2ccccc2)CC(C)(C)N1 (stereo not shown) [Analog M-1126, 22Dp-OC2Y-Atmp]	4	36%			
CCCCCCC(O)CC=CCCCCCCCC(=O)NC(Cc1ccc(OCc2c(Cl)cccc2Cl)cc1)C(=O)NC1CC(C)(C)NC(C)(C)C1 (stereo not shown) [Analog M-1128, Rio-OC2Y-Atmp]	1.6	48%	44%		
CC1(C)CC(NC(=O)C(Cc2ccc(-c3ccccc3)cc2)NC(=O)C=Cc2c(F)c(F)c(F)c(F)c2F)CC(C)(C)N1 (stereo not shown) [Analog M-1174, F5c-Bip-Atmp]	3.7	57%	37%		
O=C(C=Cc1c(F)c(F)c(F)c(F)c1F)NC(Cc1ccc(I)cc1)C(=O)NC1CCN(Cc2ccccc2)CC1 (stereo not shown) [Analog M-1180, F5c-PIF-Abzp]	3.2	23%	53%		
O=C(NC1CCN(Cc2ccccc2)CC1)C(Cc1c(F)c(F)c(F)c(F)c1F)NC(=O)C(c1ccc(Cl)cc1)c1ccc(Cl)cc1 (stereo not shown) [Analog M-1188, Bcpa-F5F-Abzp]	4.5	17%			
O=C(C=Cc1c(F)c(F)c(F)c(F)c1F)NC(Cc1ccc2ccccc2c1)C(=O)N(Cc1ccccn1)Cc1ccccn1 (stereo not shown) [Analog M-1200, F5c-Nal-Dpic]	5	Stim			
O=C(NC(Cc1ccc2ccccc2c1)C(=O)N(Cc1ccccn1)Cc1ccccn1)C(c1ccc(Cl)cc1)c1ccc(Cl)cc1 (stereo not shown) [Analog M-1214, Bcpa-Nal-Dpic]	7.3	24%	37%		
O=C(C=Cc1c(F)c(F)c(F)c(F)c1F)NC(Cc1ccc2ccccc2c1)C(=O)N1CCN(c2ccccn2)CC1 (stereo not shown) [Analog M-1216, F5c-Nal-Pypz]	> 60	32%	22%		
O=C(NC(Cc1ccc2ccccc2c1)C(=O)N1CCN(c2ccccn2)CC1)C(c1ccc(Cl)cc1)c1ccc(Cl)cc1 (stereo not shown) [Analog M-1242, Bcpa-Nal-Pypz]	> 60	19%	36%		
O=C(C=Cc1c(F)c(F)c(F)c(F)c1F)NC(Cc1ccc(-c2ccccc2)cc1)C(=O)N1CC2CC1CN2c1ccc(F)cc1 (stereo not shown) [Analog M-1272, F5c-Bip-Fpdh]			71%	10	22
O=C(NC(Cc1ccc(-c2ccccc2)cc1)C(=O)N1CC2CC1CN2Cc1ccccc1)C(c1ccc(Cl)cc1)c1ccc(Cl)cc1 (stereo not shown) [Analog M-1276, Bcpa-Bip-Bdbh]			56%	> 60	20
O=C(C=Cc1c(F)c(F)c(F)c(F)c1F)NC(Cc1ccc(I)cc1)C(=O)N1CC2CC1CN2Cc1ccccc1 (stereo not shown) [Analog M-1280, F5c-PIF-Bdbh]			40%	10	20
O=C(C=Cc1c(F)c(F)c(F)c(F)c1F)NC(Cc1ccc(I)cc1)C(=O)N1CCC2(CC1)OCCO2 (stereo not shown) [Analog M-1284, F5c-PIF-Dasd]			Stim.	22	20
O=C(C=Cc1c(F)c(F)c(F)c(F)c1F)NC(Cc1ccc(I)cc1)C(=O)N1CCN(C(c2ccc(F)cc2)c2ccc(F)cc2)CC1 (stereo not shown) [Analog M-1336, F5c-PIF-Fpmp]			71%		12
CC1(C)CC(NC(=O)C(Cc2ccc(OCc3c(Cl)cccc3Cl)cc2)NC(=O)c2ccccn2)CC(C)(C)N1 (stereo not shown) [Analog M-1350, Pic-OC2Y-Atmp]		36%		6.1	

Structure (SMILES)	IC50 (SCLC strain SHP-77; read-out: SHP-77 In vitro IC50) [µM]	A-549 In vivo % inhib. (A549 NSCLC cells)	PC3 In vivo % inhib. (PC3 PC cells)	IC50 (SCLC strain SHP-77; read-out: SCLC SHP-77 IC50) [µM]	IC50 (NSCLC strain A-549) [µM]
CC1(C)CC(NC(=O)[C@H](Cc2ccc(C#N)cc2)NC(=O)c2ccccn2)CC(C)(C)N1 [Analog M-1352, Pic-PCNF-Atmp]		21%		> 60	
CC1(C)CC(NC(=O)C(Cc2ccc(OCc3c(Cl)cccc3Cl)cc2)NC(=O)Cc2c(F)c(F)c(F)c(F)c2F)CC(C)(C)N1 (stereo not shown) [Analog M-1356, F5pa-OC2Y-Atmp]		0		4.4	
COc1ccc(C=CC(=O)NC(Cc2ccc(OCc3c(Cl)cccc3Cl)cc2)C(=O)NC2CC(C)(C)NC(C)(C)C2)cc1OC (stereo not shown) [Analog M-1362, 3,4Dmc-OC2Y-Atmp]		21%		4	
CC1(C)CC(NC(=O)C(Cc2ccc(OCc3c(Cl)cccc3Cl)cc2)NC(=O)CCCc2c[nH]c3ccccc23)CC(C)(C)N1 (stereo not shown) [Analog M-1364, 3Ibu-OC2Y-Atmp]		50%	9%	7.2	
CC(C)=CCCC(C)CC(=O)NC(Cc1ccc(OCc2c(Cl)cccc2Cl)cc1)C(=O)NC1CC(C)(C)NC(C)(C)C1 (stereo not shown) [Analog M-1366, Dmo-OC2Y-Atmp]		14%		3.8	
CC1(C)CC(NC(=O)C(Cc2ccc(OCc3c(Cl)cccc3Cl)cc2)NC(=O)c2cnccn2)CC(C)(C)N1 (stereo not shown) [Analog M-1368, 2Pyz-OC2Y-Atmp]		47%	Stim.	3.2	
CC1(C)CC(NC(=O)C(Cc2ccc(OCc3c(Cl)cccc3Cl)cc2)NC(=O)c2ccc(B(O)O)cc2)CC(C)(C)N1 (stereo not shown) [Analog M-1372, Bbz-OC2Y-Atmp]		64%		> 60	
COc1ccc2c(c1)c(CC(=O)NC(Cc1ccc(OCc3c(Cl)cccc3Cl)cc1)C(=O)NC1CC(C)(C)NC(C)(C)C1)c(C)n2C(=O)c1ccc(Cl)cc1 (stereo not shown) [Analog M-1376, Indo-OC2Y-Atmp]		18%	44%	1.5	1.8
CC(=O)Oc1ccccc1C(=O)NC(Cc1ccc(OCc2c(Cl)cccc2Cl)cc1)C(=O)NC1CC(C)(C)NC(C)(C)C1 (stereo not shown) [Analog M-1378, Aspr-OC2Y-Atmp]		9%	Stim.	2.9	3.5
COc1ccc2cc(C(C)C(=O)NC(Cc3ccc(OCc4c(Cl)cccc4Cl)cc3)C(=O)NC3CC(C)(C)NC(C)(C)C3)ccc2c1 (stereo not shown) [Analog M-1380, Napr-OC2Y-Atmp]			26%	1.7	1.6
CC1(C)CC(NC(=O)C(Cc2ccc(OCc3c(Cl)cccc3Cl)cc2)NC(=O)Cc2ccccc2Nc2c(Cl)cccc2Cl)CC(C)(C)N1 (stereo not shown) [Analog M-1382, Dfc-OC2Y-Atmp]		46%		2.9	
CC1(C)CC(NC(=O)C(Cc2ccc(OCc3c(Cl)cccc3Cl)cc2)NC(=O)CCCc2ccc(N(CCCl)CCCl)cc2)CC(C)(C)N1 (stereo not shown) [Analog M-1384, Chl-OC2Y-Atmp]		46%	Stim.	1.8	1.9
CC1(C)CC(NC(=O)C(Cc2ccc(OCc3c(Cl)cccc3Cl)cc2)NC(=O)C=Cc2cc(F)cc(F)c2F)CC(C)(C)N1 (stereo not shown) [Analog M-1388, F3c-OC2Y-Atmp]		21%	Stim.	1.6	
CC1(C)CC(NC(=O)C(Cc2ccc(OCc3c(Cl)cccc3Cl)cc2)NC(=O)c2ccc(NC(=N)N)cc2)CC(C)(C)N1 (stereo not shown) [Analog M-1390, Gbz-OC2Y-Atmp]			Stim.	> 40	4.3
CC(C(=O)NC(Cc1ccc(OCc2c(Cl)cccc2Cl)cc1)C(=O)NC1CC(C)(C)NC(C)(C)C1)c1cccc(C(=O)c2ccccc2)c1 (stereo not shown) [Analog M-1392, Ktpf-OC2Y-Atmp]		28%	18%	2.9	
CC1(C)CC(NC(=O)C(Cc2ccc(OCc3c(Cl)cccc3Cl)cc2)NC(=O)C2CCn3c(C(=O)c4ccccc4)ccc32)CC(C)(C)N1 (stereo not shown) [Analog M-1394, Ktlc-OC2Y-Atmp]		68%	Stim.	2.9	4.9

Source: patent publication US7858349B2, “Anti-cancer compounds” (The Regents of the University of Colorado, priority 1999, dated 2010)
